Measurements published in US20220409554A1, “ASCORBIC ACID AND QUINONE COMPOUND FOR CANCER TREATMENT” (IC-MedTech Corp., priority 2021, published 2022).
Read-outs that look alike come from different tables or passages of the source.

Tests used:
Type in all cases: cell-based
[1] = tested on: Leukemia T lymphocytes (Jurkat); assay: Antiproliferative activity, trypan blue staining and automated counting; settings: Homo sapiens
Protocol: (§1) The antiproliferative activity of vitamin C (L-ascorbic acid) and/or compound A6 was determined in Colon26 (colon cancer), GS9L (glioblastoma), Jurkat (leukemia), MCF7 (breast cancer), and U87MG (glioblastoma). Jurkat cells were cultured in RPMI-1640 medium supplemented with 10% heat-inactivated fetal bovine serum (FBS), penicillin (100 U/mL), and streptomycin (100 μg/mL). Normal lymphocytes were cultured in the same medium supplemented with 10% FBS only. Adhesive cancer cell lines (Colon26, GS9L, MCF7, and U87MG) were cultured in DMEM supplemented with 10% FBS, penicillin (100 U/mL), and streptomycin (100 μg/mL). Adhesive non-cancer cell lines, FHC and MCF10A, were cultured in DMEM-F12 and DMEM, respectively, each supplemented with 10% FBS and growth factors. EOC2 cells were cultured in DMEM supplemented with 10% FBS. All cells were cultured in a humidified atmosphere containing 5% CO2 at 37° C. The adhesive cells were released using a trypsin-EDTA solution (0.05% of trypsin/EDTA) and subsequently washed with PBS. The cells were collected by centrifugation (1,000×g/10 min for leukemia lymphocytes; 1,500×g/15 min for normal lymphocytes; and 800×g/5 min for adhesive cells) and placed in a fresh medium without antibiotics and growth factors prior to treatment with vitamin C and/or compound A6. The cells (1×10^6 cells/mL for non-adhesive and 3×10^5 cells/mL for adhesive) were incubated with vitamin C and/or compound A6 for different time intervals in a cell incubator. At each time interval, aliquots were removed for analyses. For lymphocytes, cell proliferation and viability were analyzed by trypan blue staining and automated counting using a COUNTESS automated cell counter. Briefly, 10 μL of trypan blue (0.4%) was added to 10 μL of a cell suspension and incubated for 30 s, and 10 μL of the cell suspension was placed in a COUNTESS glass chamber. The numbers of live and dead cells in the suspension were counted automatically. The linear range of operation with the automated cell counter was 1×10^4-5×10^6 cells/mL, and the optimal cell size was in the range of […].

[2] = tested on: Normal lymphocytes; assay: as above; settings: Lymphocyte, combination of vitamin C and compound A6 (weight ratio 100:1), concentration of the named component
Protocol: as §1

[3] = tested on: Lymphoma B lymphocytes (Raji); assay: as above; settings: Homo sapiens
[4] = tested on: Breast cancer cells (MCF7); assay: Antiproliferative activity, CELLTITER-GLO luminescent cell viability assay; settings: Homo sapiens, combination of vitamin C and compound A6 (weight ratio 100:1), concentration of the named component
Protocol: (§2) The antiproliferative activity of vitamin C (L-ascorbic acid) and/or compound A6 was determined in Colon26 (colon cancer), GS9L (glioblastoma), Jurkat (leukemia), MCF7 (breast cancer), and U87MG (glioblastoma). Jurkat cells were cultured in RPMI-1640 medium supplemented with 10% heat-inactivated fetal bovine serum (FBS), penicillin (100 U/mL), and streptomycin (100 μg/mL). Normal lymphocytes were cultured in the same medium supplemented with 10% FBS only. Adhesive cancer cell lines (Colon26, GS9L, MCF7, and U87MG) were cultured in DMEM supplemented with 10% FBS, penicillin (100 U/mL), and streptomycin (100 μg/mL). Adhesive non-cancer cell lines, FHC and MCF10A, were cultured in DMEM-F12 and DMEM, respectively, each supplemented with 10% FBS and growth factors. EOC2 cells were cultured in DMEM supplemented with 10% FBS. All cells were cultured in a humidified atmosphere containing 5% CO2 at 37° C. The adhesive cells were released using a trypsin-EDTA solution (0.05% of trypsin/EDTA) and subsequently washed with PBS. The cells were collected by centrifugation (1,000×g/10 min for leukemia lymphocytes; 1,500×g/15 min for normal lymphocytes; and 800×g/5 min for adhesive cells) and placed in a fresh medium without antibiotics and growth factors prior to treatment with vitamin C and/or compound A6. The cells (1×10^6 cells/mL for non-adhesive and 3×10^5 cells/mL for adhesive) were incubated with vitamin C and/or compound A6 for different time intervals in a cell incubator. At each time interval, aliquots were removed for analyses. For other cell lines, cell proliferation and viability were analyzed using the CELLTITER-GLO luminescent cell viability assay. Briefly, 100 μL aliquots of a cell suspension were placed in a well of a 96-well plate and incubated with vitamin C and/or compound A6 for 24 and 48 h in a humidified atmosphere containing 5% CO2 at 37° C. The CELLTITER-GLO reagent containing luciferin and luciferase (100 μL) was added to each well, followed by incubation. The luminescence produced by the luciferase-catalyzed conversion of luciferin into oxyluciferin by living cells was detected using a microplate reader in a chemiluminescent mode.

[5] = tested on: Colon cancer cells (Colon 26); assay: as above; settings: Mus musculus
Protocol: as §2

[6] = tested on: Human glioblastoma cells (U87MG); assay: as above; settings: U-87 MG, combination of vitamin C and compound A6 (weight ratio 100:1), concentration of the named component
Protocol: as §2

[7] = tested on: Normal breast epithelial cells (MCF10A); assay: as above; settings: Homo sapiens, MCF-10A, combination of vitamin C and compound A6 (weight ratio 100:1), concentration of the named component
Protocol: as §2

[8] = tested on: Normal colon epithelial cells (FHC); assay: as above; settings: combination of vitamin C and compound A6 (weight ratio 100:1), concentration of the named component
Protocol: as §2

[9] = tested on: Normal microglial cells; assay: as above; settings: combination of vitamin C and compound A6 (weight ratio 100:1), concentration of the named component
Protocol: as §2

[10] = combination of vitamin C and compound A6 (weight ratio 100:1), concentration of the named component, read-out: IC50
[11] = compound alone, read-out: IC50 (μM) Jurkat
[12] = compound alone, read-out: IC50 (μM) Raji
[13] = Colon26, compound alone, read-out: IC50 (μM) Colon26

| SMILES | IC50 [1, 10] | IC50 [1, 11] | IC50 [2] | IC50 [3, 10] | IC50 [3, 12] | IC50 [4] | IC50 [5, 13] | IC50 [5, 10] | IC50 [6] | IC50 [7] | IC50 [8] | IC50 [9] |
| --- | --- | --- | --- | --- | --- | --- | --- | --- | --- | --- | --- | --- |
| O=C1O[C@H]([C@@H](O)CO)C(O)=C1O [Vitamin C, L-ascorbic acid] | 3 µM | 2000 µM | > 20 µM | 5 µM | > 2000 µM | 3.5 µM | > 2000 µM | 4.8 µM | 11 µM | > 20 µM | > 20 µM | > 20 µM |
| COC1=C(OC)C(=O)C(C)=CC1=O [Compound A6, 2,3-dimethoxy-5-methyl-1,4-benzoquinone] | 300 µM | 5 µM | > 2000 µM | 500 µM | > 20 µM | 350 µM | > 20 µM | 480 µM | 1100 µM | > 2000 µM | > 2000 µM | > 2000 µM |
